# According to patent publication US20100255580A1, “Differentiation of Human Embryonic Stem Cells” (LIFESCCAN, INC., priority 2007, published 2010):
# B1: FGF10: member of the fibroblast growth factor family (protein, UniProt O15520 38-208, looked up)
# Fibroblast growth factor 10: QALGQDMVSPEATNSSSSSFSSPSSAGRHVRSYNHLQGDVRWRKLFSFTKYFLKIEKNGKVSGTKKENCPYSILEITSVEIGVVAVKAINSNYYLAMNKKGKLYGSKEFNNDCKLKERIEENGYNTYASFNWQHNGRQMYVALNGKGAPRRGQKTRRKNTSAHFLPMVVHS
# B2: Wnt-1: Wnt ligand (PeproTech, NJ, Catalogue #120-17) (protein, UniProt P04628 28-370, looked up)
# Proto-oncogene Wnt-1: ANSSGRWWGIVNVASSTNLLTDSKSLQLVLEPSLQLLSRKQRRLIRQNPGILHSVSGGLQSAVRECKWQFRNRRWNCPTAPGPHLFGKIVNRGCRETAFIFAITSAGVTHSVARSCSEGSIESCTCDYRRRGPGGPDWHWGGCSDNIDFGRLFGREFVDSGEKGRDLRFLMNLHNNEAGRTTVFSEMRQECKCHGMSGSCTVRTCWMRLPTLRAVGDVLRDRFDGASRVLYGNRGSNRASRAELLRLEPEDPAHKPPSPHDLVYFEKSPNFCTYSGRLGTAGTAGRACNSSSPALDGCELLCCGRGHRTRTQRVTERCNCTFHWCCHVSCRNCTHTRVLHECL
# Tests used:
# [1] = system: H9P49 embryonic stem cells; assay: Real-time PCR of pancreatic endoderm markers, evaluation of retinoic acid analogues; type: cell-based, human
# Protocol: At day 5, cells were collected for evaluation by FACS and real-time PCR. […] The resulting definitive endoderm cells at day 5 were exposed to the following media conditions to induce pancreatic endoderm formation: culturing in DMEM/F 12 media supplemented with 2% FBS and 1 μM all-trans retinoic acid (RA) (Catalog#R2625, Sigma, MO), or 0.1-10 μM AM-580 (4-[(5,6,7,8-Tetrahydro-5,5,8,8-tetramethyl-2-naphthalenyl)carboxamido]benzoic acid, Catalog #A8843, Sigma, MO), or 0.1-1 μM TTNPB (4-[(E)-2-(5,6,7,8-Tetrahydro-5,5,8,8-tetramethyl-2-naphthalenyl)-1-propenyl]benzoic acid Arotinoid acid, Catalog #T3757, Sigma, MO) for 3 days. AM-580 and TTNPB are retinoic acid analogs with affinity for retinoic acid receptors. RA treatment was followed by additional three day treatment in DMEM/F12 media supplemented with 2% FBS and 20-50 ng/ml bFGF (Catalog #F0291, Sigma, MO).
# [2] = system: human embryonic stem cell line H1; assay: Real-time PCR of definitive endoderm markers, H1 on human serum or […] (Examples 30, 31, 35); type: cell-based
# Protocol: Cultures of the human embryonic stem cell line H1 at passage 55 were grown and differentiated on human serum (Sigma, #H1388, MO) coated plates. 0.5 ml of human serum was added to each well of 6 well tissue culture treated dish, incubated for 1 hr at room temperature, and aspirated before adding human embryonic stem cells. After cells reached 80% confluency, they were treated as follows: 2 days 0.5% FBS containing 10 ng/ml mouse recombinant Wnt3a (R&D) or 100 nM GSK-3B inhibitor IX (Catalog #361550, Calbiochem, CA) and 100 ng/mlActivin A (R&D). This was followed by 3 days 2% FBS plus 100 ng/mlActivin A. Cultures were then analyzed by real-time PCR (FIG. 46, panels a & b). […] These findings parallel our findings for human embryonic stem cells cultured on […]™ or human fibronectin coated plates.
# The effectiveness of a number of commercially available GSK-3B inhibitors was evaluated in formation of DE from human embryonic stem cells. The following GSK-3B inhibitors were evaluated at 100 nM: GSK-3B inhibitor VIII (Catalog #361549, Calbiochem, CA), GSK-3B inhibitor IX (Catalog #361550, Calbiochem, CA), GSK-3B inhibitor XI (Catalog #361553, Calbiochem, CA), GSK-3B inhibitor XII (Catalog #361554, Calbiochem, CA). […] Control cultures were treated with low serum plus high dose of AA. FIG. 47, panels a and b depicts the gene expression of definitive endoderm markers at day 5. GSK-3B inhibitor IX and XI were both effective in inducing DE formation as compared to GSK-3B inhibitor VIII and XII.
# The following combinations of WNT1+AA were tested:
# a) 20 ng/ml of WNT1+100 ng/ml AA in 0.5% FBS+DM-F12 for days 1-2 followed by 2% FBS+DM-F12+100 ng/ml AA for day three, b) 20 ng/ml of WNT1+100 ng/ml AA in 0.5% FBS+DM-F12 for days 1-2 followed by 2% FBS+DM-F12+100 ng/ml AA for days 3-5, c) 10 ng/ml of WNT1+100 ng/ml AA in 0.5% FBS+DM-F12 for days 1-2 followed by 2% FBS+DM-F12+100 ng/ml AA for day three, d) 10 ng/ml of WNT1+100 ng/ml AA in 0.5% FBS+DM-F12 for days 1-2 followed by 2% FBS+DM-F12+100 ng/ml AA for days 3-5, e) 20 ng/ml of WNT1+100 ng/ml AA in 0.5% FBS+DM-F12 for days 1-2 followed by 2% FBS+DM-F12+100 ng/ml AA+20 ng/ml of WNT1 for day three, f) 20 ng/ml of WNT1+100 ng/ml AA in 0.5% FBS+DM-F12 for days 1-2 followed by 2% FBS+DM-F12+100 ng/ml AA+20 ng/ml of WNT1 for days 3-5.
# [3] = system: human embryonic stem cell line H9; assay: Real-time PCR of marker gene expression, H9 on MEF (Examples 2-7); type: cell-based
# Protocol: Cells were harvested at the time points indicated in FIG. 3 and assayed by PCR for the expression of genes shown (FIGS. 3, 4 and 5).
# After this time interval, the cells were then treated for six days with combinations of retinoic acid and FGF as outlined in Example 2, then the culture medium was removed and replaced with medium comprising DMEM/F12 with 2% FBS, containing the γ-secretase inhibitors L-685,458 at 10 μM for three days.
# Cells were continuously cultured for another 3 to 5 days in basal medium with retinoic acid at 1 μM, alone or with bFGF. RNA samples were harvested from cells at various time points along this process to help evaluate the directed differentiation of the cells. Furthermore, culture medium and factors were regularly removed and replenished throughout the differentiation protocol.
# RNA extraction, purification, and cDNA synthesis. RNA samples were purified by binding to a silica-gel membrane (Rneasy Mini Kit, Qiagen, CA) in the presence of an ethanol-containing, high-salt buffer followed by washing to remove contaminants. The RNA was further purified using a TURBO DNA-free kit (Ambion, INC), and high-quality RNA was then eluted in water. Yield and purity were assessed by A260 and A280 readings on a spectrophotometer. cDNA copies were made from purified RNA using an ABI (ABI, CA) high capacity cDNA archive kit.
# Real-time PCR amplification and quantitative analysis.
# Final data were expressed relative to a calibrator sample.
# [4] = system: pancreatic endoderm cells derived from human embryonic stem cells; assay: Passage and expansion of pancreatic endoderm cells in culture; type: cell-based; conditions: 50 ng/ml FGF10; 6 day culture period
# Protocol: The low serum DMEM/F12 contained 0% (v/v) fetal bovine serum (FBS) on day 1, 0.5% (v/v) FBS on day two and 2% (v/v) FBS on each day thereafter. After four days of differentiation, the cells were cultured in low serum DMEM/F12 contained 2% (v/v) FBS, 1 μM retinoic acid and 50 ng/ml bFGF for a total of six more days. After the six days of differentiation, the cells were maintained in culture in low serum DMEM/F12 contained 2% (v/v) FBS in the presence of 50 ng/ml FGF10 for a total of 6 days. During the six-day culture period, the pancreatic endoderm cells were passaged twice and cell population-doubling time is about 36 to 48 hours during this 6-day culture. On days 0, 3, and 6 of culture, Q-PCR was used to measure the expression of marker genes indicative of pancreatic endoderm.
# [5] = 1 μM RA followed by exposure to bFGF
molecule,measurement,setting,value
"CC1(C)CCC(C)(C)c2cc(C(=O)Nc3ccc(C(=O)O)cc3)ccc21 [AM-580, 4-[(5,6,7,8-Tetrahydro-5,5,8,8-tetramethyl-2-naphthalenyl)carboxamido]benzoic acid]",AFP and CDX-2 expression,[1]; 10 μM AM-580,suppressed
same,expression of PDX-1,[1]; 10 μM AM-580,high expression
O=C1NC(=O)C(c2cn(CCCO)c3ncccc23)=C1c1cnccn1 [GSK-3B inhibitor XI],inducing DE formation,"[2]; H1P54 on MATRIGEL, 100 nM for first two days, compared to GSK-3B inhibitor VIII and XII",effective
"CC1=C(/C=C/C(C)=C/C=C/C(C)=C/C(=O)O)C(C)(C)CCC1 [retinoic acid, all-trans retinoic acid, reference compound]",expression of GLUT-2 and PTF1a,[3]; 1 μM retinoic acid and bFGF in the absence of activin A,increase
same,expression of Pdx1,[3]; activin A or retinoic acid alone,did not induce
same,expression of α-fetoprotein (AFP) and albumin,[3]; retinoic acid and FGF-4 for five days after 7 days activin A,further increased
same,level of Pdx1 expression versus activin A treatment alone for 5 days,"[3]; three days activin A, then 5 days 1 μM retinoic acid and 50 ng/ml bFGF in the absence of activin A",approximately 3500 fold
same,"foregut endoderm markers, such as CDX-2 and AFP",[1]; [5],robust expression
same,"pancreatic endoderm markers, such as PDX-1",[1]; [5],significantly upregulates
B1,expression of the pancreatic endoderm marker Pdx1,[4],maintained expression
B2,"definitive endoderm markers (Bry, CXCR4, GSC, SOX17, HNF-3B, and GATA-4)","[2]; H1P55 on MATRIGEL, 20 ng/ml Wnt1 with 100 ng/ml of AA",significant upregulation
